According to US5770688A, “Method and composition for the treatment of mammalian HIV infection” (GSF-Forschungszentrum fur Umwelt und Gesundheit GmbH, priority 1989, dated 1998):

How the values were obtained:
[1] = test system: P24; assay: P24 production in melittin treated HIV infected cultures; type: cell-based
Source text: This means, in essence, that the effect of melittin (Seq. ID NO:1) on the virus is to attack the virus before it is released from an infected cell although it is possible that a reduction in virus numbers may be possible during and immediately after the addition of melittin to a cell culture or otherwise. […] At this point in time, melittin is absent from the culture. […] This observation excludes any effect in the experiments to be explained by a direct effect of melittin on "cell free" virus, that is, virus released into the supernatant.
These characteristics appear to be due to the specific structure of the melittin amphiphilic helix. […] In this regard, treatment was at cultivation start, and measurement of infectivity was seven days post treatment. As was discussed earlier, maximum virus concentration in cultures of this type is not achieved for five days after cultivation. As should be understood and the conclusions which the inventors have drawn from same is that if the reduced viral infectivity seven days post treatment were only due to direct effects of melittin on the virus, then in that event, the melittin or an active fragment would have to be present as late as five days post treatment. […] Moreover, and if the reduction and supernatant infectivity was partly due to reduced virus production as opposed to incorrect virus assembly or destruction of newly synthesized virion, then, in that event, this should be reflected by reduced amounts of viral proteins within the cells and/or in their supernatants of the melittin treated cultures. To determine whether this hypothesis is correct the inventors chose the P24 marker as a marker for viral protein production. […] However, following fourteen hours of incubation with melittin, there is a marked reduction of P24 within the cells as well as in the supernatant (down to 60%).

[2] = test system: non-infected cells; assay: MTT toxicity/killing of non-infected cells (Biomek 1000); type: cell-based
Method: The KE37-1 (uninfected) and KE37-1/111β (infected) cell lines discussed below are commercially available from the Dr. Robert Gallows Laboratory of the NIH in the United States of America and grown in a medium of RPMI 1640 (GIBCO) and further supplemented with 10% fetal calf serum which contained approximately 100 units of penicillin, 100 μg streptomycin, and approximately 0.25 μg fungizone (Amphotericin B) per milliliter. The human mesenchymal cell lines LC5 and LC5-HIV, discussed below, are deposited with the Collection De L'Institut Pasteur of Paris, France on Mar. 9, 1989 and given the accession numbers I-842 and I-843, respectively. […]
In the present series of experiments HIV release was tested by a fully automated laboratory robot system and which is manufactured by Beckman Instruments as the Biomek 1000. […] The number of living cells are quantified by MTT, that is by a metabolic (dehydrogenase) test. […] The toxic effect is detected at the time of the experiment and not in a separate control experiment. Furthermore, the supernatant, and which contains released virus cells from the period of time which elapsed from the last wash, and which may vary from 24 hours to 7 days, is collected from the culture, and an aliquot is saved for virus quantification by employing antigen or viral enzyme reverse transcriptase (RT). […]

## Gly-Ile-Gly-Ala-Val-Leu-Lys-Val-Leu-Thr-Thr-Gly-Leu-Pro-Ala-Leu-Ile-Ser-Trp-Ile-Lys-Arg-Lys-Arg-Gln-Gln-Amide [melittin]
[1]
  cellular vs supernatant P24 reduction: cellular P24 seems to be reduced sooner and more strongly than supernatant P24
[1]; fourteen hours of incubation, down to, 840 min
  P24 within the cells as well as in the supernatant: 60%
[1]; three hours of incubation
  reduction of cellular and supernatant P24: only a slight reduction
[1]; totally infected (clone) cultures
  virus protein synthesis (P24 formation within the cell): virus protein synthesis is reduced
[2]
  critical concentration at which all non-infected cells were killed: 10 μg per ml
